Data: US10391070B2, “Compositions and methods for treating neurological diseases or injury” (MUSC FOUNDATION FOR RESEARCH DEVELOPMENT, priority 2012, dated 2019)

How the values were obtained:
[1] = system: HT22 cells; experiment: t-BuOOH toxicity protection (MTS cell viability); format: cell-based, mouse; details: HT22, 50 μM t-BuOOH
Experimental: Cell viability was assessed by the ability of the viable cells to metabolize 3-(4,5-dimethylthiazol-2-yl)-5-(3-carboxymethoxyphenyl)-2(4-sulfophenyl)2-H-tetrazolium, inner salt (MTS), as described previously (Cory et al., 1991). The metabolism of tetrazolium salts is often used to measure cellular proliferation, but in the system used here, it has been previously shown to correlate well with cell viability as determined by trypan blue exclusion and colony-forming assays (Davis and Maher, 1994). Briefly, HT-22 cells were seeded onto 96-well plates at 5.0×10^3 cells per well in 75 μL of medium and maintained at 37° C. in 5% CO2 overnight prior to the initiation of experimental treatments. For glutamate toxicity testing, cells were subsequently treated with 25 μL of medium containing glutamate (monosodium glutamate, Sigma, 1 M stock concentration in media, to achieve a final concentration of 10 mM) plus inhibitors (stock in DMSO) and maintained at 37° C. in 5% CO2. For t-BuOOH toxicity testing, cells were subsequently treated with 25 μL of medium containing t-BuOOH (Sigma, 10 mM stock concentration, to achieve a final concentration of 50 μM) plus inhibitors (stock in DMSO) and maintained at 37° C. in 5% CO2 for 3 hours, after which the media was removed, cells washed gently with HBSS, the media replaced with standard culture media, and the cells returned to incubation at 37° C. in 5% CO2. For both glutamate and t-BuOOH treatments, 10 μl of MTS solution was added to each well 24 hrs after initial treatment, and the cells were maintained in growth medium for 2 h at 37° C. Absorbance at 490 nm was subsequently measured by a SpectraMax 190 plate reader (Molecular Devices). The growth medium without cells in the presence of MTS solution was used as solution background and untreated cells were considered the controls. Cell viability was calculated as a percentage compared with untreated controls. EC50 determinations were based on 12-point titrations using GraphPad Prism, and each experiment was repeated at least four times. Morphology of HT22 cells following treatments was determined by phase-contrast microscopy. Digital images of cells grown on cell culture plates were captured at 10× magnification.
In light of the findings that the protection against glutamate induced cell death provided by VK2, 2q, and 2j, are at least partially mediated by the attenuation of the increased production of endogenous ROS, the inventors also examined the effects of these compounds on tert-butylhydroperoxide (t-BuOOH) induced cell death. t-BuOOH is a short chain analog of the lipid hydroperoxides formed from peroxidation reactions during oxidative stress that is cytotoxic to cells (Lemasters and Nieminen, 1997). […] It is well documented that cells undergo rapid and extensive fragmentation in the early stages of cell death (Bossy-Wetzel et al., 2003; Frank et al., 2001; Breckenridge et al., 2008; Jagasia et al., 2005; Lee et al., 2004). Recent studies have shown that mitochondrial fragmentation is regulated by the translocation of dynamin-related protein 1 (Drp1) from the cytosol to the mitochondria, where it assembles to form spirals at division sites (Smirnova et al., 2001). Although the exact molecular mechanism is still not well studied, the activity of Drp1 is regulated by the phosphorylation and dephosphorylation of specific serine residues by protein kinases and phosphatases such as calcineurin and the PGAM5 (Wang et al., 2012; Chang et al., 2007). […]

[2] = system: zebrafish larvae; experiment: Zebrafish larval toxicity (NOEC, lethal dose); format: in vivo; details: 7 dpf zebrafish larvae; highest sub-lethal dose
Experimental: Using a 96-well plate, one zebrafish larva (7 dpf) was placed in each well in 100 μL of tank water (TW). 100 μL of each compound (0.5-15 μM) was then added to each well for 12 animals (one row) to give a final volume of 200 […]. A control row was tested for DMSO toxicity effects. […] Each drug was assessed for the no observed effect concentration (NOEC), the highest non-lethal dose resulting in no apparent toxic effects.
Zebrafish (AB strain) were obtained from the Zebrafish International Resource Center (supported by P40 RR012546 from NIH-NCRR). Zebrafish were maintained and crossed according to standard methods (Westerfield, 2000). Fertilized eggs were collected and placed in E3 embryo medium and positioned in an incubator set at 28.5° C. with a 14/10 h light/dark cycle (Kimmel et al., 1995). To determine the lethal dose of each compound, 96-well plates containing one zebrafish (7 days post-fertilization, dpf) per well in 100 μL of tank water were used. 100 μL of each compound (0.5 to 15 μM) was added to each well for 12 animals (one row) for a final volume of 200 μL. One row of larvae was used as DMSO only controls. […] All zebrafish studies were approved by the Medical University of South Carolina Institutional Animal Care and Use Committee (AR #2850) and performed in accordance with the guidelines.
Using a 96-well plate, one zebrafish larva (7 dpf) was placed in each well in 100 μL of tank water. 100 μL of each compound was then added to each well for 12 animals (one row) for a final volume of 200 μL. One row of zebrafish larvae was used as DMSO only controls. […] Toxicity was also measured in the mouse model by the NIH Anticonvulsant Screening Program at the National Institute of Neurological Disorders and Stroke (Stables and Kupferberg, 1997), according to the established NIH experimental procedures. Compounds were delivered into mice by intraperitoneal (i.p.) injection at a dose of 100 mg/kg in sterile 5% DMSO, 95% Neobee (Josey et al., 2013). Acute toxicity was assessed by monitoring the animals for impaired neuromuscular function by placing treated mice on a rod rotating at 6 rpm. […]

[3] = system: PTZ-induced seizures; experiment: PTZ-induced seizure (swim activity) model in zebrafish larvae; format: in vivo, zebrafish (Danio rerio)
Experimental: The DanioVision locomotion tracking instrument with Ethovision XT software (Noldus) was used to measure the severity of the seizures by quantifying the locomotor activity of each fish.
In a 48-well plate, one 6-7 dpf larva was added per well. Compounds were given at a sub-lethal dose and treated for 1 h. Three control rows were included—tank water (TW) only, PTZ only and PTZ+VPA (2-4 mM final concentration of VPA). […] After 5 min, the plate was transferred to the Daniovision apparatus and the chamber light was turned on. After 2 min, Ethovision was used to determine the distance traveled (a marker of seizure of activity) by each fish for 15 min (25 frames per second). Velocity, duration of movement, and frequency of movement were also determined from the same recording. After measurement, fish were monitored visually for survival. The distance moved over the recording period with Ethovision XT software (Noldus) was averaged over 8 wells per treatment unless the fish was not detected.
In a 48-well plate, one 7 dpf zebrafish was added per well. Larvae were dosed with each compound at a sub-lethal dose 1 h prior to PTZ treatment. Three control rows were included with each experiment—tank water only control, PTZ only and PTZ+VPA (4 mM final concentration of VPA). […] After 5 min, the plate was transferred to the Daniovision instrument (Noldus Information Technology) and the chamber light was turned on. After 2 min, MediaRecorder (Noldus) was used to record video for 15 min. A small number of videos were acquired 25 frames per second, but the majority of the data was acquired at the frame rate of 60 frames per second. After recording, fish were monitored visually for survival. Ethovision XT software (Noldus) was used to track the fish movement from the video images in order to calculate the total distance traveled over 15 min. […] All experimental comparisons were made between animals from the same clutch.

[4] = system: c-fos; experiment: c-fos gene expression in PTZ-treated zebrafish larvae; format: in vivo, zebrafish (Danio rerio); details: 7 dpf zebrafish, pre-treatment
Experimental: Ten 7 dpf larvae were placed in 500 μL tank water in wells of a 48-well cell-culture plate and appropriate concentrations of drugs were added as in the behavior study (Table 9). After a 1 h pre-incubation period, PTZ was added to a final concentration of 15 mM in appropriate wells and larvae were incubated for a further 45 min. Fish were quickly euthanized by incubating the plate in an ice-water bath for 15 min. Fish were removed from each well and all liquid removed before freezing at −80° C. RNA was extracted using Trizol (Invitrogen) followed by the RNeasy Mini kit (Qiagen). Frozen embryos were homogenized in 800 μL Trizol using in-tube pestles and a motorized homogenizer. Following a 5-min incubation at room temperature, 200 μL chloroform was added and the samples were centrifuged at 12,000 g for 10 min. The aqueous phase was transferred to a new tube and 250 μL 100% ethanol was added and the samples mixed. This mixture was then transferred to the Qiagen minicolumn assembly and the protocol followed as described with the kit. Samples were eluted in 30 μL RNase free water and concentration was determined using the Nanodrop instrument (Thermo Fisher). cDNA was prepared using the RETROscript kit (Ambion) with 500 ng total RNA. cDNA was then diluted 1:1 with sterile dH2O and 2.5 μL of this cDNA was used in the QPCR reaction with SsoAdvanced SYBR Green Supermix (BioRad) and c-fos primers designed to span an intron-exon junction (c-fos F: […], SEQ ID NO:9; c-fos R: […], SEQ ID NO:10) ([…] each) in the BioRad CFX96 RealTime instrument. L13a and EF1a gene expression were used for normalization (Rahn et al., 2013). The following cycle conditions were used: 95° C./3 min, 40 cycles of 95° C./15 s, 62° C./30 s, followed by 95° C. 30 s and a dissociation curve. Samples were run in duplicate. The 2^−ΔΔCt method was used to quantify gene expression, whereby all gene Ct values were first normalized to Ct values of the geometric mean of the Ct of L13a and EF1a (Livak and Schmittgen, 2001). Treated samples were then normalized to the tank water control and converted to fold change.

[5] = system: HT22 cells; experiment: Glutathione determination in glutamate-treated cells; format: cell-based, mouse; details: HT22, 10 mM glutamate 8 hrs
Experimental: The content of total glutathione (reduced and oxidized) in the supernatant of cell homogenate was measured using the glutathione assay kit (Cayman Chemical) in microtiter plate assay, which utilizes an enzymatic recycling method, using glutathione reductase, for the quantification of glutathione. The sulfhydryl group of glutathione reacted with 5,5′-dithiobis-2-nitrobenzoic acid (DTNB) and produced a yellow-colored 5-thio-2-nitrobenzoic acid (TNB), which was measured at 405 nm.

[6] = Antioxidant activity assay (DPPH free radical scavenging); details: 20 μM, 100 μM DPPH in methanol
Experimental: Antioxidant activity of various reagents was assayed as previously described by monitoring the disappearance of the optical absorbance of the stable-free radical DPPH on reaction with test compounds (Blois, 1958). The rate of the reaction represents the antioxidant potency of test agents. The known free radical scavenger Trolox and ascorbic acid were used as positive controls. Briefly, 10 μL of test reagents at final concentrations of 20 μM were added to 200 μL of 100 μM DPPH in methanol. Optical absorbance of DPPH at 517 nm was immediately monitored for 10 min.

COC1=C(OC)C(=O)C(C/C=C(\C)CC/C=C(\C)CC/C=C(\C)CC/C=C(\C)CC/C=C(\C)CC/C=C(\C)CC/C=C(\C)CC/C=C(\C)CC/C=C(\C)CCC=C(C)C)=C(C)C1=O [co-enzyme Q10]
protection from t-BuOOH induced cell death [1]: less effective

CCCC(CCC)C(=O)O [Valproic Acid (VPA), 2-n-propylpentanoic acid]
Highest concentration tested for anti-seizure activity [2]: 4 mM | required concentration for reduction of seizures ([3]; PTZ-treated zebrafish larvae): 4 mM | Seizure suppression ([3]; PTZ-treated zebrafish larvae, pretreated 1 hr at NOEC): Yes | PTZ-induced swim activity (distance traveled) ([3]; zebrafish larvae, 1 h pretreatment at sub-lethal concentration (VPA 4 mM, NQN-1 3 μM), 15 mM PTZ): significantly reduced distance traveled compared to PTZ alone | PTZ-induced increase in c-fos expression [4]: able to blunt this increase in expression

COC1=C(OC)C(=O)C(CCCCCCCCCCO)=C(C)C1=O [Ideb, Idebenone]
depletion of total cellular GSH ([5]; 5 μM): did not prevent GSH depletion

CN1C(=O)C(Cc2c[nH]c3ccccc23)NC1=S (stereo not drawn) [Nec-1, Necrostatin-1]
depletion of total cellular GSH ([5]; 50 μM): did not prevent GSH depletion

Cc1c(C)c2c(c(C)c1O)CCC(C)(C(=O)O)O2 (stereo not drawn) [Trolox]
protection from t-BuOOH induced cell death [1]: less effective | depletion of total cellular GSH ([5]; 25 μM): did not prevent GSH depletion | free radical scavenging capacity (DPPH absorbance) [6]: rapidly scavenged DPPH

O=C1O[C@H]([C@@H](O)CO)C(O)=C1O [ascorbic acid]
free radical scavenging capacity (DPPH absorbance) [6]: rapidly scavenged DPPH
